Results reported in patent US20040022834A1, “Pharmaceutical oxan preparation” (priority 2000, published 2004).
Structures can show the parent of a compound that is named as a salt. Where two headings read alike, the source gives them in different places.

Tests used:
[1] = type: in vitro ADME
Description: These values are sufficiently high to make it possible to aim at the daily administration, from a transdermal patch, of a quantity of efaroxan base or hydrochloride in the mg range.
FIG. 4 represents the quantities of idazoxan base and hydrochloride released ex vivo using animal skins, in the case of aqueous alcoholic solutions according to the invention.

[2] = ex vivo permeation on animal skins after pretreatment with a promoter (reference batch CM586); type: in vitro ADME; settings: ratio of quantity accumulated at 24 h, trial (skin pretreated with promoter) to reference batch CM586; as dexefaroxan base
Description: FIG. 3 represents the quantities expressed as dexefaroxan base of the accumulated quantities (μg/cm^2); it involves comparing the reference batch CM586 with or without individual pretreatment with promoters.

Row | permeation index (PI) [2] | Molecule | quantities accumulated at 24 hours [1] [mg/cm^2] | quantities accumulated at 24 hours ([1]; 24 h, 10 % m/v) [mg/cm^2] | other results
1 | – | CC[C@]1(C2=NCCN2)Cc2ccccc2O1 [dexefaroxan base] | ~8.5 | – | –
2 | – | CC[C@]1(C2=NCCN2)Cc2ccccc2O1 [dexefaroxan hydrochloride] | – | ~1.0 | –
3 | – | c1ccc2c(c1)OCC(C1=NCCN1)O2 (stereo not shown) [idazoxan base, 2-(1,4-benzodiosan-2-yl)-2-imidazoline] | ~5 | – | quantities released at 24 h, base form versus hydrochloride [1]: significantly higher
4 | – | c1ccc2c(c1)OCC(C1=NCCN1)O2 (stereo not shown) [idazoxan hydrochloride, 2-(1,4-benzodiosan-2-yl)-2-imidazoline] | – | ~0.25 | –
5 | 2.4 | Mannitan oleate | – | – | –
6 | 2.6 | Sorbitan monooleate | – | – | –
